# Like-named read-outs stand apart in the source and are kept apart here.
# Molecular target: SARS-CoV-2 3CLpro (Severe acute respiratory syndrome coronavirus 2, UniProt P0DTD1)
# Assay: biochemical
# Assay type: biochemical
# Design: Replicate_1 / Replicate_2 / mean / mean (LOPAC_screen_w_protease): unit not given here
# Details: for mean (LOPAC screen with protease) / Replicate_1 (LOPAC screen with protease) / Replicate_2 (LOPAC screen with protease): primary screen at 5 µM; for inhibition at 5 µM: 4 h
# [1] = sheet LOPAC_screen_w_protease, mean of two replicates
# [2] = sheet LOPAC_screen_w_protease, replicate 1
# [3] = sheet LOPAC_screen_w_protease, replicate 2
# [4] = sheet LOPAC_screen_w_protease, primary screen with protease, mean of two replicates
# [5] = sheet LOPAC_screen_w_protease, primary screen with protease, replicate 1
# [6] = sheet LOPAC_screen_w_protease, primary screen with protease, replicate 2
# [7] = LOPAC1280 primary screen with protease, 5 µM compound, mean of two replicates
# [8] = LOPAC1280 primary screen with protease, 5 µM compound, replicate 1
# [9] = LOPAC1280 primary screen with protease, 5 µM compound, replicate 2
# [10] = sheet LOPAC_screen_w_protease, LOPAC1280 at 5 µM, mean of two replicates
# [11] = sheet LOPAC_screen_w_protease, LOPAC1280 at 5 µM, replicate 1
# [12] = sheet LOPAC_screen_w_protease, LOPAC1280 at 5 µM, replicate 2
# [13] = sheet LOPAC_screen_w_protease, primary screen of LOPAC1280 at 5 µM with protease, mean of the two replicates
# [14] = sheet LOPAC_screen_w_protease, primary screen of LOPAC1280 at 5 µM with protease, replicate 1
# [15] = sheet LOPAC_screen_w_protease, primary screen of LOPAC1280 at 5 µM with protease, replicate 2
# [16] = sheet LOPAC_screen_w_protease, LOPAC1280 primary screen with protease, 5 µM compound, mean of the two replicates
# [17] = sheet LOPAC_screen_w_protease, LOPAC1280 primary screen with protease, 5 µM compound, replicate 1
# [18] = sheet LOPAC_screen_w_protease, LOPAC1280 primary screen with protease, 5 µM compound, replicate 2
# [19] = sheet LOPAC_screen_w_protease, LOPAC1280 primary screen at 5 µM, with protease, mean of the two replicates, read-out: mean
# [20] = sheet LOPAC_screen_w_protease, LOPAC1280 primary screen at 5 µM, with protease, replicate 1, read-out: Replicate_1
# [21] = sheet LOPAC_screen_w_protease, LOPAC1280 primary screen at 5 µM, with protease, replicate 2, read-out: Replicate_2
# [22] = LOPAC1280 primary screen with protease, 5 µM compound, replicate 1, read-out: Replicate_1 (LOPAC_screen_w_protease)
# [23] = LOPAC1280 primary screen with protease, 5 µM compound, replicate 2, read-out: Replicate_2 (LOPAC_screen_w_protease)
structure (smiles),measurement,setting,value
"CCCc1c(OCCCOc2ccc(OCC(=O)O)cc2)ccc(C(C)=O)c1O [L-165,041]",mean (LOPAC screen with protease),[1],13.6599
same,Replicate_1 (LOPAC screen with protease),[2],14.4944
same,Replicate_2 (LOPAC screen with protease),[3],12.8255
"Cc1ccccc1N1CCN(S(=O)(=O)CC23CCC(CC2NC(=O)C(N)CCS(C)(=O)=O)C3(C)C)CC1.Cl [L-368,899]",mean,[4],2.3895
same,Replicate_1,[5],2.509
same,Replicate_2,[6],2.27
"Cc1c(CC(C)(C)C(=O)O)n(Cc2ccc(Cl)cc2)c2ccc(F)cc12 [L-655,240]",mean (LOPAC_screen_w_protease),[7],1.677
same,Replicate_1 (LOPAC_screen_w_protease),[8],2.414
same,Replicate_2 (LOPAC_screen_w_protease),[9],0.9392
"CCOC(=O)c1ncn2c1[C@@H]1CCCN1C(=O)c1cc(OC)ccc1-2 [L-655,708]",mean,[10],1.109
same,Replicate_1,[11],1.0635
same,Replicate_2,[12],1.155
"Cl.c1ccc(CN2CCC3(CCCc4ccccc43)CC2)cc1 [L-687,384 hydrochloride]",mean,"sheet LOPAC_screen_w_protease, LOPAC1280 primary screen at 5 µM, with protease, mean of the two replicates",0.6815
same,Replicate_1,"sheet LOPAC_screen_w_protease, LOPAC1280 primary screen at 5 µM, with protease, replicate 1",0.6204
same,Replicate_2,"sheet LOPAC_screen_w_protease, LOPAC1280 primary screen at 5 µM, with protease, replicate 2",0.7425
"O=c1[nH]c2cc(Cl)ccc2c(O)c1-c1cccc(Oc2ccccc2)c1 [L-701,324]",mean,[4],2.464
same,Replicate_1,[5],2.862
same,Replicate_2,[6],2.066
"Ic1ccccc1CNC1C2CCN(CC2)C1C(c1ccccc1)c1ccccc1.O=C(O)C(=O)O [L-703,606 oxalate]",mean,[13],3.6584
same,Replicate_1,[14],4.135
same,Replicate_2,[15],3.181
"CC(=O)N[C@@H](Cc1c[nH]c2ccccc12)C(=O)OCc1cc(C(F)(F)F)cc(C(F)(F)F)c1 [L-732,138]",mean,[4],2.284
same,Replicate_1,[5],2.97
same,Replicate_2,[6],1.597
"Cl.FC(F)(F)c1cc(CO[C@H]2CCCN[C@H]2c2ccccc2)cc(C(F)(F)F)c1 [L-733,060 hydrochloride]",mean,[13],3.689
same,Replicate_1,[14],3.241
same,Replicate_2,[15],4.136
"OC1(c2ccc(Cl)cc2)CCN(Cc2c[nH]c3ccccc23)CC1 [L-741,626]",mean,[16],4.28
same,Replicate_1,[17],4.691
same,Replicate_2,[18],3.869
"Cl.Clc1ccc(N2CCN(Cc3c[nH]c4ncccc34)CC2)cc1 [L-745,870 hydrochloride]",mean (LOPAC_screen_w_protease),[7],1.375
same,Replicate_1 (LOPAC_screen_w_protease),[8],2.129
same,Replicate_2 (LOPAC_screen_w_protease),[9],0.6216
"Cl.Cl.Cl.Ic1ccc(N2CCN(Cc3c[nH]c4ncccc34)CC2)cc1 [L-750,667 trihydrochloride]",mean,[16],4.601
same,Replicate_1,[17],3.085
same,Replicate_2,[18],6.117
"COc1cc2nc(N3CCN(C(=O)OCc4ccccc4)C(C(=O)NC(C)(C)C)C3)nc(N)c2cc1OC [L-765,314]",mean,[10],1.212
same,Replicate_1,[11],3.331
same,Replicate_2,[12],-0.9073
N=C(N)NCCC[C@H](N)C(=O)O [L-Arginine],inhibition at 5 µM,[19],0.787%
same,inhibition at 5 µM,[20],3.1%
same,inhibition at 5 µM,[21],-1.52%
CCCCS(=N)(=O)CC[C@H](N)C(=O)O (stereo partly drawn) [L-Buthionine-sulfoximine],inhibition at 5 µM,[22],1.94%
same,inhibition at 5 µM,[23],2.27%
same,mean (LOPAC_screen_w_protease),"LOPAC1280 primary screen with protease, 5 µM compound, mean of the two replicates",2.107
NC(N)=NOCC[C@H](N)C(=O)O.O=S(=O)(O)O [L-Canavanine sulfate],mean,[10],1.293
same,Replicate_1,[11],1.623
same,Replicate_2,[12],0.9625
N[C@H]1CON=C1O [L-Cycloserine],inhibition at 5 µM,"sheet LOPAC_screen_w_protease, primary screen with protease, compound at 5 µM, mean of two replicates, read-out: mean",3.14%
same,inhibition at 5 µM,"sheet LOPAC_screen_w_protease, primary screen with protease, compound at 5 µM, replicate 1, read-out: Replicate_1",0.423%
same,inhibition at 5 µM,"sheet LOPAC_screen_w_protease, primary screen with protease, compound at 5 µM, replicate 2, read-out: Replicate_2",5.86%
N[C@@H](CS(=O)O)C(=O)O [L-Cysteinesulfinic Acid],mean (LOPAC_screen_w_protease),[7],1.669
same,Replicate_1 (LOPAC_screen_w_protease),[8],1.739
same,Replicate_2 (LOPAC_screen_w_protease),[9],1.598
Cl.N[C@@H](CCC(=O)O)C(=O)O [L-Glutamic acid hydrochloride],mean (LOPAC_screen_w_protease),[7],1.56
same,Replicate_1 (LOPAC_screen_w_protease),[8],1.529
same,Replicate_2 (LOPAC_screen_w_protease),[9],1.59
"O=C(O)CCC(C(=O)O)N1C(=O)c2ccccc2C1=O [L-Glutamic acid, N-phthaloyl-]",mean,[10],1.263
same,Replicate_1,[11],1.846
same,Replicate_2,[12],0.6803
NC(=O)CC[C@H](N)C(=O)O [L-Glutamine],inhibition at 5 µM,[19],0.871%
same,inhibition at 5 µM,[20],2.13%
same,inhibition at 5 µM,[21],-0.384%
Cl.N[C@@H](Cc1cnc[nH]1)C(=O)O [L-Histidine hydrochloride],mean,[13],3.829
same,Replicate_1,[14],4.566
same,Replicate_2,[15],3.093
"CC(C)CC(N)CSSCC(N)CC(C)C.Cl.Cl [L-Leucinethiol, oxidized dihydrochloride]",mean (LOPAC screen with protease),[1],45.1144
same,Replicate_1 (LOPAC screen with protease),[2],48.0888
same,Replicate_2 (LOPAC screen with protease),[3],42.1401
CC(=N)NCCCC[C@H](N)C(=O)O.Cl [L-N6-(1-Iminoethyl)lysine hydrochloride],mean,[4],2.233
same,Replicate_1,[5],3.474
same,Replicate_2,[6],0.9911
N[C@@H](Cc1c[nH]c2ccccc12)C(=O)O [L-Tryptophan],inhibition at 5 µM,[19],0.58%
same,inhibition at 5 µM,[20],2.12%
same,inhibition at 5 µM,[21],-0.955%
C=CC[C@H](N)C(=O)O [L-allylglycine],mean,"sheet LOPAC_screen_w_protease, primary screen with protease, 5 µM, mean of two replicates",0.3305
same,Replicate_1,"sheet LOPAC_screen_w_protease, primary screen with protease, 5 µM, replicate 1",-0.7105
same,Replicate_2,"sheet LOPAC_screen_w_protease, primary screen with protease, 5 µM, replicate 2",1.372
C[C@](N)(Cc1ccc(O)c(O)c1)C(=O)O [L-alpha-Methyl DOPA],mean (LOPAC screen with protease),[1],7.163
same,Replicate_1 (LOPAC screen with protease),[2],6.315
same,Replicate_2 (LOPAC screen with protease),[3],8.01
C[C@](N)(Cc1ccc(O)cc1)C(=O)O [L-alpha-Methyl-p-tyrosine],mean,[16],4.979
same,Replicate_1,[17],5.136
same,Replicate_2,[18],4.822
O=C(O)[C@@H]1CCN1 [L-azetidine-2-carboxylic acid],inhibition at 5 µM,"sheet LOPAC_screen_w_protease, primary screen with protease, 5 µM, mean of two replicates, read-out: mean",-0.00926%
same,inhibition at 5 µM,"sheet LOPAC_screen_w_protease, primary screen with protease, 5 µM, replicate 1, read-out: Replicate_1",-0.0704%
same,inhibition at 5 µM,"sheet LOPAC_screen_w_protease, primary screen with protease, 5 µM, replicate 2, read-out: Replicate_2",0.0519%
CN1CCc2ccccc2Cc2[nH]c3ccccc3c2CC1 [LE 300],Replicate_1,,0.4919
same,Replicate_2,,1.5197
same,mean,,1.0058
C/C(O)=C(\C#N)C(=O)Nc1cc(Br)ccc1Br [LFM-A13],mean (LOPAC_screen_w_protease),[7],1.507
same,Replicate_1 (LOPAC_screen_w_protease),[8],-0.001982
same,Replicate_2 (LOPAC_screen_w_protease),[9],3.017
"CC(O)C(C)OC(=O)[C@@H]1C[C@@H]2c3cccc4c3c(cn4C(C)C)C[C@H]2N(C)C1.O=C(O)/C=C\C(=O)O (stereo partly drawn) [LY-53,857 maleate]",mean,[13],3.324
same,Replicate_1,[14],1.754
same,Replicate_2,[15],4.894
"CN1C2CCC1CC(NC(=O)c1nn(C)c3ccccc13)C2.O=C(O)/C=C\C(=O)O (stereo not drawn) [LY-278,584 maleate]",mean,[16],4.776
same,Replicate_1,[17],3.942
same,Replicate_2,[18],5.61
"Cl.O=c1cc(N2CCOCC2)oc2c(-c3ccccc3)cccc12 [LY-294,002 hydrochloride]",mean,[16],5.665
same,Replicate_1,[17],6.484
same,Replicate_2,[18],4.845
"CC1(C)C(=O)N(CCN2CCC(C(=O)c3ccc(F)cc3)CC2)c2ccccc21.Cl [LY-310,762 hydrochloride]",mean (LOPAC_screen_w_protease),[7],1.717
same,Replicate_1 (LOPAC_screen_w_protease),[8],1.617
same,Replicate_2 (LOPAC_screen_w_protease),[9],1.816
"O=S1(=O)N(CCN2CC=C(c3c[nH]c4cc(F)ccc34)CC2)c2cccc3c2N1CCC3 [LY-367,265]",mean,[4],2.318
same,Replicate_1,[5],0.8121
same,Replicate_2,[6],3.823
Nc1nnc(-c2cccc(Cl)c2Cl)c(N)n1 [Lamotrigine],inhibition at 5 µM,[22],1.42%
same,inhibition at 5 µM,[23],1.78%
same,mean (LOPAC_screen_w_protease),[7],1.603
